For experiment [1], the system named is LPA-induced mast cell histamine release. As to the kind of experiment: In vivo LPA-induced histamine release. Set-up: species or system mouse. The protocol:
Female CD-1 mice (Envigo) were allowed to acclimate for ~ 1 week. Animals were subject to a 12 h light – 12 h dark cycle. Mice were multi-housed in Innorack IVC mouse racks (Innovive, San Diego, CA) with access to water and standard rodent chow ad libitum. […] Three hours or 24 h after a single dose or after the last of 4 repeated administrations, 150 µL FAF-PBS/BSA (Control) or LPA (300 µg in 150 µL) was administered IV via the lateral tail vein and mice were immediately placed into an isoflurane chamber. Two minutes later, mice were euthanized by decapitation and trunk blood collected into K3EDTA tubes and stored on wet ice until processing to plasma (1450 x g, 10 min, 4 °C). Plasma was aliquoted into two 96-well polypropylene plates and transferred to −80 °C for storage until analysis for histamine by EIA.

The subject of experiment [2] is primary human alveolar macrophages. The experiment can be described thus: LPS-induced IL-1β release. The format is cell-based. Here is the method: Human macrophages were cultured in Human Alveolar Macrophage Media per manufacturer’s instructions. […] Cells were then co-stimulated with 500 ng/mL LPS for 4 h. Plates were spun down and supernatant collected for analysis using a human IL-1β ELISA kit per manufacturer’s directions.

Experiment [3] has as its system normal, non-fibrotic human PCLS. As to the kind of experiment: Fibrotic marker mRNA (qPCR) in normal PCLS. Particulars: n=5 donors. The format is cell-based. Here is the method:
Precision cut lung slices were obtained from Anabios (San Diego, CA) and collected in accordance with their ethics policy (https://anabios.com/ethics-statement/). Donor demographics are available in Additional File 1. Slices were thawed as per vendor instructions. Briefly, PCLS were thawed at 37 °C then transferred to media consisting of DMEM/F12, Antibiotic-Antimytotic, and Penicillin-Streptomycin. PCLS were gently rinsed then transferred to a larger dish. A small tissue sample was excised with a scalpel for immunohistochemistry and qPCR characterization. […] Final concentration of DMSO was 0.1%. Media and compound were replaced every two days for a total of 6 days. At the end of the experiment, slices were collected and snap frozen. Quantitative PCR: RNA was extracted using RNEasy columns. RNA was reverse transcribed using qScript XLT per manufacturer’s instructions. Genes of interest were assessed by qPCR using Perfecta SYBR Green on a StepOne Plus Thermocycler (ABI). Parameters were as follows: 95 °C 30 s, then 45 cycles of 95 °C for 5 s and 60 °C for 30 s.

Molecules are shown by their SMILES.

`COc1ccc(NC(=O)N(c2ccccc2C(C)C)C2CCC(C(=O)O)CC2)c(OC(F)F)n1` (stereo not drawn) [PIPE-791]: the “blockade of LPA-induced histamine release” value in experiment [1] (oral, 4 consecutive days (steady state), LPA 3 or 24 h after final dose) was “significant efficacy at 0.3 and 3 mg/kg was observed at both timepoints”; in experiment [1] (single oral dose 0.3 mg/kg, LPA challenge 3 or 24 h later), “significance was observed at 24 h but not at 3 h”; in experiment [1] (single oral dose 3 mg/kg, LPA challenge 3 or 24 h later), “significant blockade of histamine release”. Moreover, the “LPS-induced IL-1β in culture media” value in experiment [2] (500 ng/mL LPS 4 h, LPS alone 4.3-fold increase) is “inhibited to baseline levels”. Further, in experiment [2] (no LPS), the “IL-1β in culture media, compound alone” value is reported as “No increase was observed”. In experiment [3], the “expression of fibrotic marker transcripts (COL1A1, COL3A1, SERPINE1, TIMP1, LPAR1)” value was “did not alter the expression of any of the fibrotic marker transcripts tested”.
